Test results taken from PubChem BioAssay AID1259407 (Chemical Carcinogenesis Research Information System (CCRIS), 2018).
The source made the active and inactive calls. The rule behind the calls is not given here.

Test system: CCRIS mutagenicity, Ames/micronucleus/aberration tests
Test: CCRIS mutagenicity studies
[1] = Test System: AMES SALMONELLA TYPHIMURIUM, Strain/Indicator: TA98, Metabolic Activation: NONE, Method: STANDARD PLATE
[2] = Test System: AMES SALMONELLA TYPHIMURIUM, Strain/Indicator: TA100, Metabolic Activation: NONE, Method: STANDARD PLATE
[3] = Test System: AMES SALMONELLA TYPHIMURIUM, Strain/Indicator: TA1535, Metabolic Activation: NONE, Method: STANDARD PLATE
[4] = Test System: AMES SALMONELLA TYPHIMURIUM, Strain/Indicator: TA1538, Metabolic Activation: NONE, Method: STANDARD PLATE
[5] = Test System: AMES SALMONELLA TYPHIMURIUM, Strain/Indicator: TA98, Metabolic Activation: NONE, Method: PREINCUBATION
[6] = Test System: AMES SALMONELLA TYPHIMURIUM, Strain/Indicator: TA100, Metabolic Activation: NONE, Method: PREINCUBATION
[7] = Test System: AMES SALMONELLA TYPHIMURIUM, Strain/Indicator: TA100, Metabolic Activation: RAT, LIVER, S-9, AROCLOR 1254, Method: STANDARD PLATE
[8] = Test System: AMES SALMONELLA TYPHIMURIUM, Strain/Indicator: TA1535, Metabolic Activation: NONE, Method: PREINCUBATION
[9] = Test System: AMES SALMONELLA TYPHIMURIUM, Strain/Indicator: TA1537, Metabolic Activation: NONE, Method: PREINCUBATION
[10] = Test System: AMES SALMONELLA TYPHIMURIUM, Strain/Indicator: TA1537, Metabolic Activation: NONE, Method: STANDARD PLATE
[11] = Test System: AMES SALMONELLA TYPHIMURIUM, Strain/Indicator: TA1538, Metabolic Activation: NONE, Method: PREINCUBATION

Measured: mutagenic call

COC(=O)c1oc([N+](=O)[O-])c(Cl)c1Cl
active: [1] active; positive | Test System: AMES SALMONELLA TYPHIMURIUM, Strain/Indicator: TA100(NR), Metabolic Activation: NONE, Method: STANDARD PLATE active; positive | Test System: AMES SALMONELLA TYPHIMURIUM, Strain/Indicator: TA100, Metabolic Activation: NONE, Method: STANDARD PLATE (ANAEROBIC INCUBATION) active; positive

COc1ccc2nc3cc(Cl)ccc3c(NCCCNCCCl)c2c1
inactive: [3] inactive; negative
active: Test System: AMES SALMONELLA TYPHIMURIUM, Strain/Indicator: TA97A, Metabolic Activation: NONE, Method: STANDARD PLATE active; positive | [1] active; positive | [2] active; positive | Test System: AMES SALMONELLA TYPHIMURIUM, Strain/Indicator: TA1536, Metabolic Activation: NONE, Method: STANDARD PLATE active; positive | [4] active; positive | Test System: CHINESE HAMSTER V-79, Strain/Indicator: V-79/6-THIOGUANINE, Metabolic Activation: NONE, Method: FLASK ASSAY active; positive | Test System: CHO/HGPRT, Strain/Indicator: CHO-K1-BH4, Metabolic Activation: NONE, Method: STANDARD PLATE active; positive | Test System: UDS RODENT CELLS, Strain/Indicator: THY INCORP (NON-S-PHASE), Metabolic Activation: NONE, Method: LIQUID SCINTILLATION COUNTING active; positive

CC(=O)O[C@]1(C(C)=O)CC[C@H]2[C@@H]3C4OC4(Cl)C4=CC(=O)[C@@H]5C[C@@H]5[C@]4(C)[C@H]3CC[C@@]21C (some centres not stated)
inactive: [5] inactive; negative | [1] inactive; negative | Test System: AMES SALMONELLA TYPHIMURIUM, Strain/Indicator: TA98, Metabolic Activation: RAT, LIVER, S-9, AROCLOR 1254, Method: PREINCUBATION inactive; negative | Test System: AMES SALMONELLA TYPHIMURIUM, Strain/Indicator: TA98, Metabolic Activation: RAT, LIVER, S-9, AROCLOR 1254, Method: STANDARD PLATE inactive; negative | [6] inactive; negative | [2] inactive; negative | Test System: AMES SALMONELLA TYPHIMURIUM, Strain/Indicator: TA100, Metabolic Activation: RAT, LIVER, S-9, AROCLOR 1254, Method: PREINCUBATION inactive; negative | [7] inactive; negative | [8] inactive; negative | [3] inactive; negative | Test System: AMES SALMONELLA TYPHIMURIUM, Strain/Indicator: TA1535, Metabolic Activation: RAT, LIVER, S-9, AROCLOR 1254, Method: PREINCUBATION inactive; negative | Test System: AMES SALMONELLA TYPHIMURIUM, Strain/Indicator: TA1535, Metabolic Activation: RAT, LIVER, S-9, AROCLOR 1254, Method: STANDARD PLATE inactive; negative | [9] inactive; negative | [10] inactive; negative | Test System: AMES SALMONELLA TYPHIMURIUM, Strain/Indicator: TA1537, Metabolic Activation: RAT, LIVER, S-9, AROCLOR 1254, Method: PREINCUBATION inactive; negative | Test System: AMES SALMONELLA TYPHIMURIUM, Strain/Indicator: TA1537, Metabolic Activation: RAT, LIVER, S-9, AROCLOR 1254, Method: STANDARD PLATE inactive; negative | [11] inactive; negative | [4] inactive; negative | Test System: AMES SALMONELLA TYPHIMURIUM, Strain/Indicator: TA1538, Metabolic Activation: RAT, LIVER, S-9, AROCLOR 1254, Method: PREINCUBATION inactive; negative | Test System: AMES SALMONELLA TYPHIMURIUM, Strain/Indicator: TA1538, Metabolic Activation: RAT, LIVER, S-9, AROCLOR 1254, Method: STANDARD PLATE inactive; negative

CNC(=O)C[C@@H](N)C(=O)N[C@@H](C(=O)N[C@@H]1C(=O)N2[C@@H]1SC(C)(C)[C@@H]2C(=O)O)c1ccc(O)cc1
inactive: [5] inactive; negative | Test System: AMES SALMONELLA TYPHIMURIUM, Strain/Indicator: TA98, Metabolic Activation: RAT, LIVER, S-9, PHENOBARBITAL AND BENZOFLAVONE, Method: PREINCUBATION inactive; negative | [6] inactive; negative | Test System: AMES SALMONELLA TYPHIMURIUM, Strain/Indicator: TA100, Metabolic Activation: RAT, LIVER, S-9, PHENOBARBITAL AND BENZOFLAVONE, Method: PREINCUBATION inactive; negative | [8] inactive; negative | Test System: AMES SALMONELLA TYPHIMURIUM, Strain/Indicator: TA1535, Metabolic Activation: RAT, LIVER, S-9, PHENOBARBITAL AND 5,6 BENZOFLAVONE, Method: PREINCUBATION inactive; negative | [9] inactive; negative | Test System: AMES SALMONELLA TYPHIMURIUM, Strain/Indicator: TA1537, Metabolic Activation: RAT, LIVER, S-9, PHENOBARBITAL AND 5,6 BENZOFLAVONE, Method: PREINCUBATION inactive; negative | [11] inactive; negative | Test System: AMES SALMONELLA TYPHIMURIUM, Strain/Indicator: TA1538, Metabolic Activation: RAT, LIVER, S-9, PHENOBARBITAL AND 5,6 BENZOFLAVONE, Method: PREINCUBATION inactive; negative | Test System: E. COLI, Strain/Indicator: WP2 UVRA, Metabolic Activation: NONE, Method: PREINCUBATION inactive; negative | Test System: E. COLI, Strain/Indicator: WP2 UVRA, Metabolic Activation: RAT, LIVER, S-9, PHENOBARBITAL AND 5,6 BENZOFLAVONE, Method: PREINCUBATION inactive; negative

CC1CC(=O)O1 (configuration not stated)
active: Test System: AMES SALMONELLA TYPHIMURIUM, Strain/Indicator: G46, Metabolic Activation: NONE, Method: STANDARD PLATE active; positive | Test System: AMES SALMONELLA TYPHIMURIUM, Strain/Indicator: TA98, Metabolic Activation: HAMSTER, LIVER, S-9, AROCLOR 1254 (30%), Method: PREINCUBATION active; positive | [5] active; positive | Test System: AMES SALMONELLA TYPHIMURIUM, Strain/Indicator: TA98, Metabolic Activation: RAT, LIVER, S-9, AROCLOR 1254 (30%), Method: PREINCUBATION active; positive | Test System: AMES SALMONELLA TYPHIMURIUM, Strain/Indicator: TA100, Metabolic Activation: HAMSTER, LIVER, S-9, AROCLOR 1254 (30%), Method: PREINCUBATION active; positive | [6] active; positive | Test System: AMES SALMONELLA TYPHIMURIUM, Strain/Indicator: TA100, Metabolic Activation: RAT, LIVER, S-9, AROCLOR 1254 (30%), Method: PREINCUBATION active; positive

CC1C=Cc2ccc3ccc4ccccc4c3c21 (configuration not stated)
inactive: [7] inactive; negative

[N-]=[N+]=Nc1ccc2c(Nc3ccc(NS(=O)(=O)CCCN)cc3)c3cc(N=[N+]=[N-])ccc3nc2c1
active: [10] active; positive

CCCN(N=O)/C(N)=N/[N+](=O)[O-]
active: [6] active; positive | Test System: AMES SALMONELLA TYPHIMURIUM, Strain/Indicator: TA100, Metabolic Activation: RAT, LIVER, S-9, KC500 OR PHENOBARBITAL, Method: LIQUID SUSPENSION active; positive | [8] active; positive | [3] active; positive | Test System: AMES SALMONELLA TYPHIMURIUM, Strain/Indicator: TA1535, Metabolic Activation: RAT, LIVER, S-9, KC500 OR PHENOBARBITAL, Method: LIQUID SUSPENSION active; positive | Test System: AMES SALMONELLA TYPHIMURIUM, Strain/Indicator: YG7104, Metabolic Activation: NONE, Method: PREINCUBATION active; positive | Test System: AMES SALMONELLA TYPHIMURIUM, Strain/Indicator: YG7108, Metabolic Activation: NONE, Method: PREINCUBATION active; positive | Test System: AMES SALMONELLA TYPHIMURIUM, Strain/Indicator: YG7112, Metabolic Activation: NONE, Method: PREINCUBATION active; positive | Test System: AMES SALMONELLA TYPHIMURIUM, Strain/Indicator: YG7113, Metabolic Activation: NONE, Method: PREINCUBATION active; positive
